In patent US20210115087A1, “CYCLIC PEPTIDE INHIBITORS OF HEDGEHOG PROTEINS” (University of Rochester, priority 2016, published 2021):
Entries after “also recorded” stand apart in the source; their conditions may differ. *1 amine or outer side, *2 acyl side, *3 side chain or, on linkers, in order; H or OH if unused. Where a SMILES comes first, the peptide text is derived from it. Bridges are numbered along the chain shown (N, C = ends). CH2CH2 = C(C[*:2])[*:1]

Columns and labels:
GST-Shh [1] = molecular target: T1, GST-Shh (Homo sapiens, UniProt Q15465); assay: Hh protein binding immunoassay: FLAG-tagged peptide on plate-immobilized GST-Shh, HRP-conjugated anti-FLAG antibody
T1 construct: poly-histidine (N); made in house; host or cells: E. coli BL21(DE3), vector pET42b
Text: As for any peptide/protein interaction, various analytical and biophysical methods can be applied to test and assess the ability of the compounds provided herein to bind to Hedgehog proteins. These methods include, but are not limited to immunoassays (e.g., ELISA), radio(immune)assays, fluorescence-based assays, colorimetric assays, and/or techniques such as surface plasmon resonance (SPR), FRET, fluorescence polarization, isothermal calorimetry, NMR, and the like. A method that can be used is a solid phase immunoassay, in which the Hedgehog protein is immobilized on a plate or test tube and then incubated with the peptide at a fixed or variable concentration. In this assay, the peptide is functionalized with a label in the form of an antibody epitope (e.g., ‘FLAG tag’ peptide sequence) or an affinity tag molecule (e.g., biotin). After washing the unbound peptide, the Hedgehog-bound peptide is detected and quantified by means of a colorimetric assay using an enzyme-conjugated antibody (e.g., horseradish peroxidase-conjugated anti-FLAG antibody) or enzyme-conjugated capture protein (e.g., horseradish peroxidase-conjugated streptavidin). […]
To measure the binding affinity of the peptides for Shh, an in vitro assay was established in which recombinant GST-fused Shh is immobilized on microtiter plates and then exposed to the FLAG-tagged peptide at varying concentrations. The Shh-bound peptide is then quantified colorimetrically (λ450) using a horseradish peroxidase (HRP)-conjugated anti-FLAG antibody. […]
Hh protein binding assay. Shh binding activity/affinity of the linear and cyclic peptides was measured using the immunoassay outlined in FIG. 4. […] After washing, 100 μL of 2.2 mM o-phenylenediamine dihydrochloride, 4.2 mM urea hydrogen peroxide, 100 mM dibasic sodium phosphate and 50 mM sodium citrate, pH 5.0 was added to each well, followed by measurement of the absorbance at 450 nm using a Tecan Infinite 1000 plate reader. […]
Target sequence in this assay (Q15465 24-462): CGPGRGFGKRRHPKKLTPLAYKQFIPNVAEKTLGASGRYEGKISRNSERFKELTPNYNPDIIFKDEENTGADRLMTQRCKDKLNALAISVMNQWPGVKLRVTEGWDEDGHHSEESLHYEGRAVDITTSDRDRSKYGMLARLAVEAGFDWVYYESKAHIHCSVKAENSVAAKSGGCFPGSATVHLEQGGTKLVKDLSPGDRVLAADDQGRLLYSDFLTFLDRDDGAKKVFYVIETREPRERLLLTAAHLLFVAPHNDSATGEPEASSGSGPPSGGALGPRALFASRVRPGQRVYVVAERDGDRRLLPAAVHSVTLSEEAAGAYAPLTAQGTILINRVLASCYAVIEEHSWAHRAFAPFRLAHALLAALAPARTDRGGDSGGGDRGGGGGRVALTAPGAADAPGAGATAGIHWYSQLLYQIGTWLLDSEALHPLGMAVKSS

GST-Shh [2] = molecular target: T1, GST-Shh; assay: KD (nM)
Text: Table printed on a drawing sheet, FIG. 9
Head of the field: KD (nM)
The patent's description of the figure: FIG. 9. Shh binding affinity of X5-X8-linked cyclic peptides.
First copying reader's note: The error (±) is printed in the same cell as the KD value.
Where the first naming reader finds the target: description_of_the_figure: direct binding of the selected FLAG tag-fused peptides to plate-immobilized GST-Shh
Target sequence in this assay (Q15465 24-197 limits assumed): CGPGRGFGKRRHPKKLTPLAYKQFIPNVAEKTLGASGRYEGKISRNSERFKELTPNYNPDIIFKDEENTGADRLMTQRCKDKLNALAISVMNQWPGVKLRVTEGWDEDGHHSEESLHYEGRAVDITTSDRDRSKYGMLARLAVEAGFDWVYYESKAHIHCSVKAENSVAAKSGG

[3] = system: Shh-mediated Hedgehog pathway signaling in NIH3T3 cells; assay: Gli-reporter dual luciferase assay in Shh-N-stimulated NIH-3T3 cells; format: cell-based, mouse
Text: The ability of the compounds provided herein to inhibit ligand-induced activation of the Hedgehog pathway in a cell can be assessed by means of a cell based assay. In an exemplary procedure, a suitable reporter plasmid is introduced in a Hedgehog responsive mammalian cell. Typically, the reporter plasmid contains a reporter gene encoding (e.g., a gene encoding for firefly luciferase) under a Gli-controlled promoter, thereby providing a reporter gene that is responsive to the activity of the Gli transcription factors. […] The reporter cells are incubated with the Hedgehog protein in the presence and in the absence of the cyclic peptide. The extent of Hedgehog pathway suppression can be determined based on relative activity of the luciferase reporter enzyme, which in turn can be determined by measuring the luminescence signal after addition of a luminogenic substrate of the luciferase enzyme.
To this end, we utilized a cell-based luciferase reporter assay, (Chen, Taipale et al. 2002) in which mouse embryo fibroblasts (NIH3T3) are transfected with vectors encoding for a Firefly luciferase (FF) gene under a Gli-controlled promoter and a Renilla luciferase (Ren) gene under a constitutive promoter. Hedgehog pathway suppression is measured based on the decrease in Firefly/Renilla luminescence ratio in the presence of the inhibitor. […] (Chen, Taipale et al. 2002)
Gli-reporter Assay. NIH-3T3 cells were passaged twice and then plated in 24-well culture dishes at 5×10^5 cells/well in DMEM containing 10% FBS and 1% penicillin/streptomycin. After 24 hours, the cells were transfected (TransIT-2020) with a mixture of a firefly luciferase reporter construct under the control of a Gli1 inducible promoter and a Renilla luciferase reporter construct under a constitutive promoter (40:1) (Cignal GLI Reporter Luciferase Kit, Qiagen). Cells were allowed to reach confluency, at which point the media was changed to Opti-MEM containing 1% FBS and added with 4 nM Shh-N(R&D Systems, Minneapolis, Minn.) in sterile PBS buffer. Synthetic HL2-lin and HL2-m5 were added at the same time at varying concentration (0.01-30 uM), and control cells were prepared by adding vehicle only (1% DMSO). Purmorphamine-treated cells were prepared by adding 5 μM purmorphamine to wells containing 10 μM HL2-m5. After growth for 24 hours at 37° C. in a humidified chamber, the cells were harvested and analyzed for Firefly and Renilla luciferase activity using a Tecan Spark-20 plate reader and a DLR kit (Promega) according to the manufacturer's instructions. Luminescence values were normalized to those of the Shh pathway activated control cells. Mean values and standard deviations were calculated from experiments performed at least in duplicate.

[4] = system: GST-Shh, GST-Ihh, and GST-Dhh; assay: Hedgehog analog selectivity: relative binding at fixed peptide concentration; design: species or system human; conditions: peptide at fixed concentration of 0.5-1 μM, normalized to highest response
Description: FIG. 14. Hh analog selectivity for linear HHIP L2-derived peptide (HL2-pep) and representative cyclic peptide inhibitors. The data relative to the peptides were derived from direct binding experiments with immobilized Hedgehog proteins (i.e., GST-Shh, GST-Ihh, and GST-Dhh), biotinylated peptides (i.e., Biot-HL2-pep, Biot-HL2-m1, Biot-HL2-m2, Biot-HL2-m3, Biot-HL2-m4, Biot-HL2-m4), and HRP-conjugated streptavidin. The data relative to robotnikinin were derived from competition experiments ([…]+400 nM HL2-m5). For each compound, the response values were normalized to the highest binding response measured across the three Hedgehog analogs.
Hedgehog analog selectivity. KD values for FLAG-HL2-m5 binding to Ihh and Dhh were determined using the colorimetric immunoassay described earlier but using GST-Ihh and GST-Dhh-coated plates, respectively. The peptide relative binding affinity for the three isoforms of Hedgehog was determined using the same assay and peptide solutions at a fixed concentration of 0.5-1 μM. In this case, binding responses were subtracted against the blank (no peptide sample) and normalized to the highest value measured across the three Hh isoforms. Mean values and standard deviations were calculated from experiments performed at least in triplicate.

CSCC[C@@H]1NC(=O)[C@H](C)NC(=O)[C@H](CCC(=O)O)NC(=O)[C@@H](NC(=O)[C@H](Cc2c[nH]c3ccccc23)NC(=O)[C@H](CO)NC(=O)[C@H](CC(C)C)NC(=O)[C@@H](NC(=O)[C@H](CO)NC(=O)CNC(=O)[C@H](CO)NC(=O)CNC(=O)[C@H](CCCCN)NC(=O)[C@H](CC(=O)O)NC(=O)[C@H](CC(=O)O)NC(=O)[C@H](CC(=O)O)NC(=O)[C@H](CC(=O)O)NC(=O)[C@H](CCCCN)NC(=O)[C@H](Cc2ccc(O)cc2)NC(=O)[C@H](CC(=O)O)NC(=O)[C@@H](N)CCSC)[C@@H](C)O)Cc2ccc(cc2)OCCSC[C@@H](C(=O)N[C@H](C(=O)N[C@@H](CC(=O)O)C(=O)O)[C@@H](C)O)NC(=O)[C@H](CCSC)NC(=O)[C@H](CC(=O)O)NC1=O [FLAG-HL2-m5] (H-MDYKDDDDKGSGSTLSWYEAMDMCTD-OH; linker 18-24 via CH2CH2)
Kd (GST-Shh [1]): 170 nM
higher binding affinity for Shh compared to the linear L2-derived peptide (FLAG-HL2-pep) (GST-Shh [1]; ratio of KD values): ~120 fold

CSCC[C@H](N)C(=O)N[C@@H](CC(=O)O)C(=O)N[C@@H](Cc1ccc(O)cc1)C(=O)N[C@@H](CCCCN)C(=O)N[C@@H](CC(=O)O)C(=O)N[C@@H](CC(=O)O)C(=O)N[C@@H](CC(=O)O)C(=O)N[C@@H](CC(=O)O)C(=O)N[C@@H](CCCCN)C(=O)NCC(=O)N[C@@H](CO)C(=O)NCC(=O)N[C@@H](CO)C(=O)N[C@H](C(=O)N[C@H](C(=O)N[C@@H](CO)C(=O)N[C@@H](CC(=O)O)C(=O)NCC(=O)N[C@@H](CCC(=O)O)C(=O)N[C@@H](CCC(=O)O)C(=O)N[C@H]1Cc2ccc(cc2)OCCSC[C@@H](C(=O)N[C@@H](CC(C)C)C(=O)N[C@@H](CC(=O)O)C(=O)O)NC(=O)CNC(=O)[C@H](CC(=O)O)NC1=O)C(C)C)[C@@H](C)O [FLAG-HL2-2m1.1] (H-MDYKDDDDKGSGSTVSDGEEYDGCLD-OH; linker 21-24 via CH2CH2; N-terminus assumed)
Kd (GST-Shh [2]): 560 ± 5 nM

HL2-pep: linear peptide derived from the HHIP L2 loop (TLDDMEEMDGLSD)
inhibitory activity on Hedgehog pathway signaling (in words) ([3]; concentrations up to 30 μM, Shh-N-stimulated cells): no inhibitory activity; also recorded: unable to suppress signaling
Hedgehog analog selectivity profile [4]: Dhh>Shh≈Ihh

CSCC[C@@H]1NC(=O)[C@H](CCC(=O)O)NC(=O)[C@H](CCC(=O)O)NC(=O)[C@@H](NC(=O)[C@H](CC(=O)O)NC(=O)[C@H](CC(=O)O)NC(=O)[C@H](CC(C)C)NC(=O)[C@@H](NC(=O)[C@H](CO)NC(=O)CNC(=O)[C@H](CO)NC(=O)CNC(=O)[C@H](CCCCN)NC(=O)[C@H](CC(=O)O)NC(=O)[C@H](CC(=O)O)NC(=O)[C@H](CC(=O)O)NC(=O)[C@H](CC(=O)O)NC(=O)[C@H](CCCCN)NC(=O)[C@H](Cc2ccc(O)cc2)NC(=O)[C@H](CC(=O)O)NC(=O)[C@@H](N)CCSC)[C@@H](C)O)Cc2ccc(cc2)OCCSC[C@@H](C(=O)N[C@@H](CO)C(=O)N[C@@H](CC(=O)O)C(=O)O)NC(=O)CNC(=O)[C@H](CC(=O)O)NC1=O [FLAG-HL2-m1] (H-MDYKDDDDKGSGSTLDDYEEMDGCSD-OH; linker 18-24 via CH2CH2; N-terminus assumed)
increase in Shh binding affinity compared to FLAG-HL2-m1 (GST-Shh [1]; ratio of KD values): 11 fold

c1ccc2c(Oc3nc(Nc4ccc(N5CCOCC5)cc4)c4ncn(C5CCCCC5)c4n3)cccc2c1 [purmorphamine]
effect of Smo agonist on pathway signaling in HL-m5-treated cells ([3]; 5 μM purmorphamine added to 10 μM HL2-m5): restored activation of the signaling pathway

CSCC[C@H](N)C(=O)N[C@@H](CC(=O)O)C(=O)N[C@@H](Cc1ccc(O)cc1)C(=O)N[C@@H](CCCCN)C(=O)N[C@@H](CC(=O)O)C(=O)N[C@@H](CC(=O)O)C(=O)N[C@@H](CC(=O)O)C(=O)N[C@@H](CC(=O)O)C(=O)N[C@@H](CCCCN)C(=O)NCC(=O)N[C@@H](CO)C(=O)NCC(=O)N[C@@H](CO)C(=O)N[C@H](C(=O)N[C@@H](CCCNC(=N)N)C(=O)NCC(=O)N[C@@H](CC(=O)O)C(=O)NCC(=O)N[C@@H](CCC(=O)O)C(=O)N[C@@H](CCC(=O)O)C(=O)N[C@H]1Cc2ccc(cc2)OCCSC[C@@H](C(=O)N[C@H](C(=O)N[C@@H](CC(=O)O)C(=O)O)C(C)C)NC(=O)CNC(=O)[C@H](CC(=O)O)NC1=O)[C@@H](C)O [FLAG-HL2-2m1.2] (H-MDYKDDDDKGSGSTRGDGEEYDGCVD-OH; linker 21-24 via CH2CH2; N-terminus assumed)
Kd (GST-Shh [2]): 850 ± 20 nM

CC1=C2C[C@H]3[C@@H](CC=C4C[C@@H](O)CC[C@@]43C)[C@@H]2CC[C@]12O[C@@H]1C[C@H](C)CN[C@H]1[C@H]2C [cyclopamine]
inhibition of Shh-induced luminescence ([3]; concentration of 10 μM): full inhibition
